Patent US20160046592A1, “PHARMACEUTICAL COMPOSITION FOR THE TREATMENT OF DIABETES” (Ajinomoto Co., Inc., priority 2013, published 2016)
Structures can show the parent of a compound that is named as a salt.

Target: T1, human GYS1 (glycogen synthase) (Homo sapiens, UniProt P13807)
T1 construct: made in house; host or cells: HEK293T
T1 sequence (P13807 1-737): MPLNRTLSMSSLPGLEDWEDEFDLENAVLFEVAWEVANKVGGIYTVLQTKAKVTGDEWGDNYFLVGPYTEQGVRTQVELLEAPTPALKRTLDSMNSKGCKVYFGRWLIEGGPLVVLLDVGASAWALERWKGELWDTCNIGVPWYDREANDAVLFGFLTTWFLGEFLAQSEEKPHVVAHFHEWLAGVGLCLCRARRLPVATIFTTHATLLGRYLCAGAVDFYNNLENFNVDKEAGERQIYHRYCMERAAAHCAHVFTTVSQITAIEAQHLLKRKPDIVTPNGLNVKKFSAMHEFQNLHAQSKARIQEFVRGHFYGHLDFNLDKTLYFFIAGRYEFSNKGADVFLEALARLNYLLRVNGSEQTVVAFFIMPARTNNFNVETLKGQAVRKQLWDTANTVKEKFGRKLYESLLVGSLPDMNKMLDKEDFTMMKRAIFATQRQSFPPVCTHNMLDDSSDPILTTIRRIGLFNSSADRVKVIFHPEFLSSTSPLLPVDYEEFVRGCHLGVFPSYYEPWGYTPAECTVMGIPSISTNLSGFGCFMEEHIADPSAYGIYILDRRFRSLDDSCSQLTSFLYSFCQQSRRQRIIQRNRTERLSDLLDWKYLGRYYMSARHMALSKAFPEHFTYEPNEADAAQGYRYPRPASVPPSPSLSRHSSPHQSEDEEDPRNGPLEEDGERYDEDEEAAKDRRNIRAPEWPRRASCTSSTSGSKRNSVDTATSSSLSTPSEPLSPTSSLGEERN
Assay: Measurement of glycogen synthase activity
Format: biochemical
Conditions: concentration causing 50% increase in relative activity; 100% = compound of Example 1 of WO/2011/058154 at 10 μM; 10 mM Glucose-6-phosphate; 37° C. for 25 minutes (Examples 1 to 61 and 67 to 82) or 20 minutes (Examples 62 to 66); absorbance at 340 nm
How it was run: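 Human GYS1 from transfected HEK293T cells (re-dissolved 16000×g pellet) was reacted at 37 °C for 25 or 20 min in glycylglycine pH 7.3 with glucose-6-phosphate, glycogen and UDP-glucose. PK/LDH-coupled NADH read-out at 340 nm; EC50 from activity relative to a reference activator at 10 μM final (100%).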

EC50 [nM]	Structure (SMILES)
17	COC[C@@H]1CC[C@@H](C(=O)O)N1C(=O)c1cccc(COc2ccc(-c3cc(F)c(F)cc3SC)cc2)c1 [Example 62, (2S,5S)-1-[3-[[4-(4,5-Difluoro-2-methylsulfanyl-phenyl)phenoxy]methyl]benzoyl]-5-(methoxymethyl)pyrrolidine-2-carboxylic Acid]
17	CSc1cc(F)c(F)cc1-c1ccc(OCc2cccc(C(=O)N3C[C@H](N(C)C)C[C@H]3C(=O)O)c2)cc1 [Example 63, (2S,4R)-1-[3-[[4-(4,5-Difluoro-2-methylsulfanyl-phenyl)phenoxy]methyl]benzoyl]-4-(dimethylamino)pyrrolidine-2-carboxylic Acid Trifluoroacetate]
